According to ChEMBL document CHEMBL1201862, “PubChem BioAssay data set” (2004):
Active and inactive are the calls of the source.

Columns and labels:
Cytochrome P450 1A2 = molecular target: T1, Cytochrome P450 1A2 (Homo sapiens, UniProt P05177);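 further: PubChem cytochrome P450 panel assay, CYP1A2 panel member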
T1 sequence (P05177 whole entry): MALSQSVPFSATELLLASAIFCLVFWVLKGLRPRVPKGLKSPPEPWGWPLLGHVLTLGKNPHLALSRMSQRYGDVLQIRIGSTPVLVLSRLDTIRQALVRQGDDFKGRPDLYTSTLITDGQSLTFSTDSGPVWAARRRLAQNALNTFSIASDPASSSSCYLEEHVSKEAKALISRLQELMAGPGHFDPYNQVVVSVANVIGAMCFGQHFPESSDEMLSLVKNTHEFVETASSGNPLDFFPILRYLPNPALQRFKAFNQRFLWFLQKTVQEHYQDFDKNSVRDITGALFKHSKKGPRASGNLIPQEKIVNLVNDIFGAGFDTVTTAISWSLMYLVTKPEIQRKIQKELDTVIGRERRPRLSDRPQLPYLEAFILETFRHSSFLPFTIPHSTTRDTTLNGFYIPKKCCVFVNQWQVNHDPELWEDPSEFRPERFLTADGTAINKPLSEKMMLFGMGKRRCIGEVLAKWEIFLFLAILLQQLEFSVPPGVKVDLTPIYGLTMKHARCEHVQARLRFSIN

Cytochrome P450 3A4 = Cytochrome P450 3A4 (Homo sapiens, UniProt P08684);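 further: CYP3A4 tested as one member of a cytochrome P450 panel screen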
Sequence of Cytochrome P450 3A4 (P08684 whole entry): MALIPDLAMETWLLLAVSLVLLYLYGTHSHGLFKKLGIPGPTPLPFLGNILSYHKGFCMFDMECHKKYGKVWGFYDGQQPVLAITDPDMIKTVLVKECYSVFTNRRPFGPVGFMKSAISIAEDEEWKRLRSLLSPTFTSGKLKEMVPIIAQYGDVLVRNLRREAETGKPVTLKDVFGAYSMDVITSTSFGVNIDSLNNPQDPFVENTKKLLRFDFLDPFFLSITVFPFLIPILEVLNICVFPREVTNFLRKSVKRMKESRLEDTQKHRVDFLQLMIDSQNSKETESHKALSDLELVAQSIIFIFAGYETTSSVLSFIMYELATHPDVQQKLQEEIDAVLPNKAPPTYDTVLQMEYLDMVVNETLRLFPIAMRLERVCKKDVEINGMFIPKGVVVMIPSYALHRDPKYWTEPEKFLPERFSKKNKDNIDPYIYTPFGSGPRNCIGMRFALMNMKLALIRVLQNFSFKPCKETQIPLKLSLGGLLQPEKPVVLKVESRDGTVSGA

Cytochrome P450 2D6 = Cytochrome P450 2D6 (Homo sapiens, UniProt P10635);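 further: CYP2D6 member of a cytochrome P450 panel assay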
Sequence of Cytochrome P450 2D6 (P10635 whole entry): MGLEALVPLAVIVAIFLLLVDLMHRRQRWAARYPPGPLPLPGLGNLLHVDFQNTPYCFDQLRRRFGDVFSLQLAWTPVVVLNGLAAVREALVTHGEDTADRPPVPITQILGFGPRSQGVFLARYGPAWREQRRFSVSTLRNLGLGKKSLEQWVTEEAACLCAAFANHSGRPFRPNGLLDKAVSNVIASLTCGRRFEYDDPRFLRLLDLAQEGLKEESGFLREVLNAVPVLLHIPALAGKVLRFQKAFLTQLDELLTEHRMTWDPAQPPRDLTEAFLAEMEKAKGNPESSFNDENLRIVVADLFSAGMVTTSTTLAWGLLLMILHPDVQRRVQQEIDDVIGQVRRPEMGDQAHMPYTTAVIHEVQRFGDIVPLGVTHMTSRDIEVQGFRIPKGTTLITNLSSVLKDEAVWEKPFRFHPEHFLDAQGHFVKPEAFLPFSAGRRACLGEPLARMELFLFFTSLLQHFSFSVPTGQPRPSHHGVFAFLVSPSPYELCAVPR

[1] = Luminescence Cell-Based Dose Response HTS to Identify Activators of Luciferase Translation or Activity in H4 […] Cells. [Related pubchem assays: 1829 (Project Summary), 1814 (Primary HTS)]; format: functional
H4 = assay: Luminescence Cell-Based Dose Response HTS to Identify Activators of 5'UTR Stem-Loop Driven Prion Protein mRNA Translation in H4 Neuroglioblastoma Cells. [Related pubchem assays: 1829 (Project Summary), 1814 (Primary HTS)]; format: functional; settings: Homo sapiens
[2] = Luminescence Cell-Based Dose Confirmation HTS to Identify Activators of 5'UTR Stem-Loop Driven Alpha-Synuclein mRNA Translation in H4 Neuroglioblastoma Cells. [Related pubchem assays: 1829 (Project Summary), 1814 (Primary HTS)]; format: functional
Cytochrome P450 2C9 = Cytochrome P450 2C9 (Homo sapiens, UniProt P11712)
Sequence of Cytochrome P450 2C9 (P11712 whole entry): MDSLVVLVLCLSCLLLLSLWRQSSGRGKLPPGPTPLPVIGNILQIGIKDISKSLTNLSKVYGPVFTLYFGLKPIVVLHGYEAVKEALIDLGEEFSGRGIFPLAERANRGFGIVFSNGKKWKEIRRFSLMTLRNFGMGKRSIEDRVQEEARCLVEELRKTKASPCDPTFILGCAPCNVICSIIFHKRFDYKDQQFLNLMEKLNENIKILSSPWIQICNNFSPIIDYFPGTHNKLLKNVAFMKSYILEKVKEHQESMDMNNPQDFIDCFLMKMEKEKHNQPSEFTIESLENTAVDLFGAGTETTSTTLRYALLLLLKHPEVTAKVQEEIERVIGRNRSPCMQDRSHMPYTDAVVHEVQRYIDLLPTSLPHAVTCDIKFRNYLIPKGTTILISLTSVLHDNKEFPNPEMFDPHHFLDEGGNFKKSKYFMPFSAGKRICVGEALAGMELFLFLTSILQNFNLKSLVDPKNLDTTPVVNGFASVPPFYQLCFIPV

[3] = molecular target: FAD-linked sulfhydryl oxidase ALR (Homo sapiens, UniProt P55789); assay: inhibitors of human ALR sulfhydryl oxidase, dose response, biochemical, H2O2 detection, luminescence, cherry-pick (AID 493248)
Sequence of FAD-linked sulfhydryl oxidase ALR (P55789 whole entry): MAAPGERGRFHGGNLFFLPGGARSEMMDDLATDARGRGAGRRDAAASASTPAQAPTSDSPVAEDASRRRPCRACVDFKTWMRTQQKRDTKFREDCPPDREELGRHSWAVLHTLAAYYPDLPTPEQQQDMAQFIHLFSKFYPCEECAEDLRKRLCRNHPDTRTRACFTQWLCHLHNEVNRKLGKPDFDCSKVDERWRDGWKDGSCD

Cytochrome P450 2C19 = Cytochrome P450 2C19 (Homo sapiens, UniProt P33261); assay: Cytochrome panel assay with activity outcomes. Panel member name: p450-cyp2c19 Compounds with AC50 equal or less than 10 uM are considered active; format: functional; settings: read-out: AC50
Sequence of Cytochrome P450 2C19 (P33261 whole entry): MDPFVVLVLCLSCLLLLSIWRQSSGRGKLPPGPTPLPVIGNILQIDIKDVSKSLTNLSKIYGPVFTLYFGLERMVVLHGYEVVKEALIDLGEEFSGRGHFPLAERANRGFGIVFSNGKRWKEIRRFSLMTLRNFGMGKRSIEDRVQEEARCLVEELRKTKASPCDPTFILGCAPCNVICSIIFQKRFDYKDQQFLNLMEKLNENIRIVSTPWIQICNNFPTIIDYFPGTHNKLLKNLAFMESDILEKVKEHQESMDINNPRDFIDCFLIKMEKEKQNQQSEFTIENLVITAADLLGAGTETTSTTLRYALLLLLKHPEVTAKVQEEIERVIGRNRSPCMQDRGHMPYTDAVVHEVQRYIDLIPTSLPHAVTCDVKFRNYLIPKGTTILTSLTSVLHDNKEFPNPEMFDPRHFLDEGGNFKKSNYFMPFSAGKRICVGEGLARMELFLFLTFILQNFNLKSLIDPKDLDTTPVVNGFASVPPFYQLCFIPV

[4] = molecular target: T2, Rac GTPase-activating protein 1 (Homo sapiens, UniProt Q9H0H5); assay: MgcRacGAP GTPase-activating activity inhibitors, confirmation, biochemical, ADP Hunter fluorescence, primary and confirmatory (AID 624330); format: functional
T2 sequence (Q9H0H5 whole entry): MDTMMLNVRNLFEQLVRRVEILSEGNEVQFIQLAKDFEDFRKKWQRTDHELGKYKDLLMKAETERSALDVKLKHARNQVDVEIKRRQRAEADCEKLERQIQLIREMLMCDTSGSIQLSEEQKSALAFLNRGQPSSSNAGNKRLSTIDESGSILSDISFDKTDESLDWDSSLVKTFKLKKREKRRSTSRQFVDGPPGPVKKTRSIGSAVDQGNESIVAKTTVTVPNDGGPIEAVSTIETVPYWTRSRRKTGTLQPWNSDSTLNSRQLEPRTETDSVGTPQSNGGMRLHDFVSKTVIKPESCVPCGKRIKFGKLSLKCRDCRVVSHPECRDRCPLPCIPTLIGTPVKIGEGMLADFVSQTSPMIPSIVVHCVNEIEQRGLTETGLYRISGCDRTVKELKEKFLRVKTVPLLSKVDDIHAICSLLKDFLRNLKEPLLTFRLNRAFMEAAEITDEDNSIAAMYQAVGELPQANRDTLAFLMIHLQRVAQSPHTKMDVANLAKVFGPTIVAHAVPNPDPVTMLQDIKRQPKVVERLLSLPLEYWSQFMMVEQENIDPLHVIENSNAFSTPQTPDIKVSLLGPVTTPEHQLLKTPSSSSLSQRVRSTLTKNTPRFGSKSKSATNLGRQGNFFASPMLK

[5] = microbe, parasite or virus in culture; format: functional; settings: Mycobacterium tuberculosis
[6] = Luminescence Cell-Based Dose Retest to Confirm Inhibitors of Cancer Stem Cells. [Related pubchem assays (depositor defined):AID2717, AID2721]; format: functional; settings: Homo sapiens
Paired box protein Pax-8 = Paired box protein Pax-8 (Homo sapiens, UniProt Q06710); assay: inhibitors of PAX8-driven TPO luciferase reporter, dose response, RMG-I cells, cherry-pick (AID 687027); format: functional, cell-based;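 further: luciferase reporter driven by Pax8 target thyroperoxidase promoter measured by SteadyGlo luminescence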
Sequence of Paired box protein Pax-8 (Q06710 whole entry): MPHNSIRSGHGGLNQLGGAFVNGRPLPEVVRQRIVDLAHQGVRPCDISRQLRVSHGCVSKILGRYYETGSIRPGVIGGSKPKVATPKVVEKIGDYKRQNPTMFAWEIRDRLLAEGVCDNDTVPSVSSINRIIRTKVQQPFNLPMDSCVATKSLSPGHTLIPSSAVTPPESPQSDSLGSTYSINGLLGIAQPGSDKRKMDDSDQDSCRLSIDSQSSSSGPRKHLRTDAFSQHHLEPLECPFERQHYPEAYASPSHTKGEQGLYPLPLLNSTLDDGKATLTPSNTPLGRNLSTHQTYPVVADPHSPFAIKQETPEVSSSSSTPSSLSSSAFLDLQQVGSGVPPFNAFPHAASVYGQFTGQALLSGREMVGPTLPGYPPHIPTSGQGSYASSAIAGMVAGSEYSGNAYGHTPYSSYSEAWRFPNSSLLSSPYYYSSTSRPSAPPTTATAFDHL

[7] = control 3'UTR Renilla luciferase suppression, dose response, counter-screen for Shn3 inhibitor project, cell-based, Clone20-Shn3RL, cherry-picked (AID 624133); format: functional
[8] = Shn3 3'UTR reporter inhibitors, dose response, cell-based, Clone20 osteoblasts, firefly luciferase, cherry-picked (AID 624132); format: functional;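 further: firefly luciferase luminescence from reporter carrying the Shn3 3'UTR in osteoblasts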
[9] = HepG2 cell cytotoxicity, dose response, cytotoxicity control for Shn3 inhibitor project, CellTiter-Glo, cherry-picked (AID 624134); format: functional, cell-based
[10] = P. falciparum Dd2 growth inhibitors, dose response, SYBR Green, cherry-picked samples (AID 1159567); format: functional, cell-based
[11] = C. albicans growth with fluconazole, confirmation, fluorescence, retest (AID 2467); format: functional, cell-based
[12] = NIH-3T3 fibroblast cytotoxicity, dose response, cytotoxicity control, cell-based, fluorescence, Alamar Blue, secondary assay (AID 2327); format: functional;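 further: NIH-3T3 mouse fibroblasts cultured with fluconazole at 8 µg/mL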
[13] = HEp-2 cell cytotoxicity, dose response, cytotoxicity control for RSV inhibitor project, HTS (AID 2410); format: functional; settings: human respiratory syncytial virus

O=C(OC1CCN(CCCl)CC1)C(c1ccccc1)c1ccccc1
AC50 (Cytochrome P450 1A2): 12.6 µM (inconclusive)
AC50 (Cytochrome P450 3A4): 10 µM (inconclusive)
AC50 (Cytochrome P450 2D6): 31.6 µM (inconclusive)

N#Cc1ccc(-c2ccc(OCC3CNC(=O)O3)cc2)cc1 (centres undefined)
EC50 [1]: 36.9 µM (active)
EC50 (H4): 11.3 µM (active)
EC50 [2]: 0.187 µM (active)

O=C(NCc1ccco1)c1cc(C(=O)C2CC2)c[nH]1
AC50 (Cytochrome P450 2C9): 39.8 µM (inconclusive)
AC50 (Cytochrome P450 1A2): 0.2 µM (inconclusive)

C[N+](C)(C)/N=C\c1ccc(O)c(O)c1
AC50 (Cytochrome P450 1A2): 10 µM (inconclusive)
AC50 (Cytochrome P450 2D6): 2 µM (inconclusive)

CCc1nn(C)c(-c2nnc(S)n2N)c1Cl
AC50 (Cytochrome P450 2C9): 28.2 µM (inconclusive)
AC50 [3]: 0.673 µM (active)

CC(C)c1ccc(NC(=O)C(c2ccccc2)N2CCN(C=O)CC2)cc1 (centres undefined)
AC50 (Cytochrome P450 2C9): 14.1 µM (inconclusive)
AC50 (Cytochrome P450 2C19): 28.2 µM (inconclusive)
AC50 (Cytochrome P450 1A2): 31.6 µM (inconclusive)
AC50 (Cytochrome P450 3A4): 11.2 µM (inconclusive)
AC50 (Cytochrome P450 2D6): 14.1 µM (inconclusive)

O=C(CCN1CCN(C(c2ccccc2)c2ccccc2)CC1)N/N=C/c1ccc(O)cc1
IC50 [4]: 88.2 µM (active)
AC50 [3]: 1.6 µM (active)

Cc1cccc(NC(=O)c2nc[nH]c2C(=O)N[C@H](C)c2ccccc2)c1
CC50 [5]: 36.9 µM (active)
AC50 [6]: 6.42 µM (active)

CCCN(C)C[C@H]1OCCCC[C@@H](C)Oc2ccc(NC(=O)c3ccccc3)cc2C(=O)N([C@H](C)CO)C[C@H]1C
AC50 (Paired box protein Pax-8): 69.5 µM (active)

CCc1ccc(CNC(=O)c2cc3c(C)nc4ccccc4c3o2)cc1
AC50 [7]: 7.78 µM (active)
AC50 [8]: 2.02 µM (active)
AC50 [9]: > 70 µM (inactive)

N#Cc1ccc(OCC(O)CN2CCN(c3ncc(C(F)(F)F)cc3Cl)CC2)cc1 (centres undefined)
CC50 [5]: > 40 µM (active)

COc1ccccc1CNC(=O)C[C@H]1C[C@@H]2c3cc(NC(=O)Nc4ccc(C(F)(F)F)cc4)ccc3O[C@@H]2[C@@H](CO)O1
AC50 [10]: 8.47 µM (active)

O=C(c1ccccc1)N1CC[C@@H]2[C@@H](CO)Nc3ccc(-c4ccc(F)cc4)cc3[C@@H]21
AC50 [10]: 5.45 µM (active)

COc1ccc(-n2c(=O)c(-c3ccc(Cl)cc3)nc3cnc(N4CCNCC4)nc32)cc1
AC50 (Cytochrome P450 1A2): 12.6 µM (inconclusive)

O=C(/C=C/c1ccccc1)NNc1ccc(Cl)cc1
EC50 [11]: 2.71 µM (active)
EC50 [12]: 28.1 µM (inconclusive)
AC50 [6]: 5.85 µM (active)

Nc1ccc2ccc(O)cc2c1
IC50 [4]: 36.7 µM (active)

O=C(Nc1cccc(F)c1)c1ccc2ncsc2c1
EC50 [11]: 3.17 µM (active)
EC50 [12]: > 150 µM (inactive)

CC(=O)N1CCN(c2ccc(NCc3ccco3)cc2)CC1
IC50 [4]: 14.6 µM (active)

COc1cc(C2CC(=O)Nc3[nH]nc(-c4ccccc4)c32)cc(OC)c1OC (centres undefined)
EC50 [1]: > 120 µM (not active)
EC50 (H4): > 120 µM (not active)
EC50 [2]: > 120 µM (not active)

CC1CCCCC1NC(=O)/C=C/c1nc2ccccc2s1 (centres undefined)
EC50 [1]: 17.2 µM (active)
EC50 (H4): 16.2 µM (active)
EC50 [2]: 15.9 µM (active)

O=C(Nc1ccccc1)c1cc(-n2cnnc2)ccc1Cl
AC50 (Cytochrome P450 2C9): 25.1 µM (inconclusive)
AC50 (Cytochrome P450 1A2): 12.6 µM (inconclusive)

CCN(CC)CC(=O)NN(Cc1ccccc1)c1ccccc1
IC50 [4]: 108 µM (active)

O=C1c2ccccc2C(=O)N1CCN1CCc2ccccc21
EC50 [1]: 17.9 µM (active)
EC50 (H4): 30.3 µM (active)
EC50 [2]: 13.7 µM (active)

CC1CCCCN1Cc1cccnc1 (centres undefined)
IC50 [4]: 109 µM (active)

Cc1nn(-c2ccc(Cl)nn2)c(=O)c2ccccc12
EC50 [1]: 14.4 µM (active)
EC50 (H4): 16.4 µM (active)
EC50 [2]: 12.5 µM (active)

CO[C@H]1CN(C)C(=O)c2cc(NC(=O)c3ccc(F)cc3)ccc2OC[C@H](C)N(C(=O)c2ccc(F)cc2)C[C@H]1C
AC50 [10]: 6.03 µM (active)

NC(=S)n1[nH]c(-c2ccccc2)c(N=Nc2ccccc2C(=O)N2CCOCC2)c1=O
EC50 [11]: 7.72 µM (active)
EC50 [12]: > 150 µM (inactive)

Cc1cccc(-c2nc(C#N)c(N3CCCCC3)o2)c1
EC50 [1]: 20 µM (active)
EC50 (H4): 3.9 µM (active)
EC50 [2]: 10 µM (active)

C[C@H]1CN([C@@H](C)CO)S(=O)(=O)c2ccc(C#Cc3ccccc3)cc2O[C@@H]1CN(C)C(=O)C1CC1
AC50 [10]: 5.43 µM (active)

CCOCCCNCC(=O)NCC1CCCCC1
IC50 [4]: 141 µM (active)

O=[N+]([O-])c1ccc(-c2cn(-c3ccccc3F)c(=S)[nH]2)cc1
AC50 [3]: > 100 µM (inactive)

COc1ccc(-c2cc(-c3cc(F)ccc3O)[nH]n2)cc1OC
AC50 (Cytochrome P450 2C9): 39.8 µM (inconclusive)
EC50 [12]: > 150 µM (inactive)
AC50 (Cytochrome P450 2D6): 28.2 µM (inconclusive)

CC(C)=CCNc1ncnc2nc[nH]c12
AC50 (Cytochrome P450 1A2): 6.31 µM (inconclusive)

CN(C)c1ccc2c(c1)[C@@H]1C[C@@H](CC(=O)N3CCc4ccccc4C3)O[C@@H](CO)[C@@H]1O2
AC50 [10]: 9.12 µM (active)

CCOC(=O)Cc1csc(NC(=S)NC(=O)c2ccc(F)cc2)n1
AC50 (Cytochrome P450 2C9): 1.26 µM (inconclusive)
AC50 (Cytochrome P450 1A2): 1.12 µM (inconclusive)
AC50 (Cytochrome P450 3A4): 17.8 µM (inconclusive)

OCC1OC(n2cnc3c(O)nnnc32)C(O)C1O (centres undefined)
AC50 (Paired box protein Pax-8): 0.785 µM (active)

CN1C[C@H]2[C@@H](c3ccccc31)[C@H](CO)N2Cc1ccccc1F
AC50 [10]: 8.06 µM (active)

COC(=O)c1cn(CC(=O)NC2CCCCC2)c2ccccc12
EC50 [11]: > 38 µM (not active)
EC50 [12]: > 150 µM (inactive)

Cc1nc(-c2nc(-c3c(C(=O)NNC(=O)c4ccc(Cl)cc4)noc3C)cs2)cs1
CC50 [5]: > 40 µM (active)

CCc1ccc(CCN2CCCCC2)nc1
AC50 (Cytochrome P450 1A2): 5.01 µM (inconclusive)

NC(=O)CC(NC(=O)c1ccccc1)c1ccc(N2CCC(Cc3ccccc3)CC2)c([N+](=O)[O-])c1 (centres undefined)
AC50 [7]: 4.2 µM (active)
AC50 [8]: 2.61 µM (active)
AC50 [9]: 2.74 µM (active)

CCOc1ccc2nc(N=C(N)N=C(S)Nc3cccc(C)c3)nc(C)c2c1
CC50 [5]: > 40 µM (active)

CCc1ccc(N2CC(C(=O)N/N=C/c3cc([N+](=O)[O-])ccc3O)CC2=O)cc1 (centres undefined)
EC50 [11]: > 38 µM (not active)
EC50 [12]: 23.1 µM (active)

OCCn1cnc2c(SCc3ccccc3)ncnc21
AC50 (Cytochrome P450 1A2): 3.16 µM (inconclusive)

Oc1ccc(Cl)cc1C1=NNC(c2cc(Br)cc3c2OCOC3)C1 (centres undefined)
EC50 [11]: > 38 µM (not active)
EC50 [12]: > 160 µM (inactive)

Cc1nc(NC(=O)CC(C)C)sc1-c1csc(Nc2ccc(Cl)cc2Cl)n1
CC50 [13]: 22.9 µM (active)
CC50 [5]: > 40 µM (active)
AC50 [6]: 1.85 µM (active)

COc1cccc(C(=O)Nc2cc3c(cc2N2CCCC2)n(C)c(=O)n3C)c1
IC50 [4]: 156 µM (active)

CC(C)CN1C(=O)c2ccc(C(=O)Nc3ccccc3C(=O)O)cc2C1=O
AC50 [3]: > 100 µM (inactive)
